Laboratory results as given in patent US20120053211A1, “TREATMENT OF PANCREATIC CANCER” (ARDEA BIOSCIENCES, INC., priority 2009, published 2012).
Read-outs that look alike come from different tables or passages of the source.

Tests used:
[1] = system: human pancreatic cancer cell line BxPC3; assay: In vitro activity in human pancreatic cancer cell line BxPC3; assay type: cell-based; settings: read-out: EC50 (nM) (±standard deviation)
Procedure: The in vitro activity of compound A was determined in the human pancreatic cancer cell line BxPC3 (normal […] status). EC50 values were determined (in 1% FBS and with 45 mg/mL has), as follows

[2] = system: tumor; assay: Tumor volume following administration of compound A (FIG. 3, FIG. 4); assay type: in vivo

- EC50 ([1]; BXPC-3, BxPC3, 1% FBS): 15.8 ± 2.4 nM
- EC50 ([1]; BXPC-3, BxPC3, +45 mg/mL hSA): 207 ± 29 nM
Compound: COc1cc(F)c(F)c(Nc2ccc(I)cc2F)c1NS(=O)(=O)C1(C[C@H](O)CO)CC1 [Compound A, (S)-N-(3,4-difluoro-2-(2-fluoro-4-iodophenylamino)-6-methoxyphenyl)-1-(2,3-dihydroxypropyl)cyclopropane-1-sulfonamide]
- tumor volume as a function of time ([2]; FIG. 3): decrease in tumor volume
- tumor volume as a function of time ([2]; FIG. 4): decrease in tumor volume
